Earlier results in patent publication US20050227929A1, “Combination therapy comprising a Cox-2 inhibitor and an antineoplastic agent” (priority 2003, published 2005).
Where two headings read alike, the source gives them in different places. Where a SMILES comes first, the peptide text is derived from it.

Key:
[1] = human, in vivo
tumors = conditions: tumor-bearing mice received 225-300 μg/kg over 5 days

Question: Which Toxicity (dosage listed: 50-400 mg/day) does the source give for `CNC(=O)c1cc(Oc2ccc(NC(=O)Nc3ccc(Cl)c(C(F)(F)F)c3)cc2)ccn1` [BAY-439006] here?
Answer: well tolerated

Question: For `N[C@@H](CCC(=O)O)C(=O)N[C@@H](Cc1c[nH]c2ccccc12)C(=O)O` [IM 862, L-alpha-glutamyl-L-tryptophan] (H-Glu-Trp-OH), which Toxicity (in vivo) is on record?
Answer: no hematological

Question: Which “Dosage: tolerability” value (up to 440 mg/m^2 by 3-hour infusion every 4 weeks) does the source give for `COc1ccc(NS(=O)(=O)c2c(F)c(F)c(F)c(F)c2F)cc1F` [T138067, 2,3,4,5,6-pentafluoro-N-(3-fluoro-4-methoxyphenyl)benzenesulfonamide] here?
Answer: well tolerated

Question: With `CC(C)[C@H]1C(=O)N[C@@H](CCCN=C(N)N)C(=O)NCC(=O)N[C@@H](CC(=O)O)C(=O)N[C@H](Cc2ccccc2)C(=O)N1C` [cilengitide, cyclo(L-arginylglycyl-L-alpha-aspartyl-D-phenylalanyl-N-methyl-L-valyl)] as the molecule, how does the Toxicity [1] read?
Answer: well tolerated and safe

Question: Which Toxicity (in vivo) does the source give for `Cc1occc(=O)c1[O-].Cc1occc(=O)c1[O-].Cc1occc(=O)c1[O-].[Ga+3]` [gallium maltolate] here?
Answer: good safety

Question: Which “Dosage: tolerability” value [1] does the source give for `Cc1ccc2nc(N)[nH]c(=O)c2c1Sc1ccncc1` [nolatrexed, 2-amino-6-methyl-5-(4-pyridinylthio)-4(1H)-quinazolinone] here?
Answer: tumors is well

Question: For `O=S1(=O)CCN(CN2CCS(=O)(=O)NC2)CN1` [taurolidine, 4,4′-methylenebis[tetrahydro-2H-1,2,4-thiadiazine]1,1,1′,1′-tetraoxide], which “Dosage: tolerability” value (in vivo, 350 mg/kg/day) is on record?
Answer: well tolerated

Question: Which Toxicity [1] does the source give for `Nc1ccn([C@@H]2O[C@H](CO)[C@@H](O)/C2=C\F)c(=O)n1` [tezacitabine] here?
Answer: generally

B1: SB-408075 (conjugate, chains of the INN, looked up)
VH: QVQLVQSGAEVKKPGETVKISCKASDYTFTYYGMNWVKQAPGQGLKWMGWIDTTTGEPTYAQKFQGRIAFSLETSASTAYLQIKSLKSEDTATYFCARRGPYNWYFDVWGQGTTVTVSS
VL: DIVMTQSPLSVPVTPGEPVSISCRSSKSLLHSNGNTYLYWFLQRPGQSPQLLIYRMSNLVSGVPDRFSGSGSGTAFTLRISRVEAEDVGVYYCLQHLEYPFTFGPGTKLELK
modifications: DM1 maytansinoid payload
Question: Which “complete responses seen in % of animals” value (tumors) does the source give for B1 here?
Answer: in 100% of
